ChEMBL document CHEMBL2203098 (J Med Chem, 2012)
pIC50: −log10 of the molar value. Calls of active or inactive are those of the source. The calls are words filed in the database; no cut-off is given here.

What was measured:
HT-22 [1] = assay: Neuroprotective activity against glutamate induced oxidative stress in mouse hippocampal HT22 cells assessed as cell viability at 1 uM after 24 hrs by MTT assay; format: functional, cell-based
HT-22 [2] = assay: Neuroprotective activity against glutamate induced oxidative stress in mouse hippocampal HT22 cells assessed as cell viability at 10 uM after 24 hrs by MTT assay; format: functional, cell-based
[3] = target: Acetylcholinesterase (Electrophorus electricus) (UniProt O42275); assay: Inhibition of electric eel AChE at 100 uM by colorimetric Ellman assay
Rattus norvegicus [4] = assay: Hepatoprotective activity against tacrine-induced toxicity in Wistar rat liver assessed as decrease in tissue content of TBARS at 2 uM/100 gram of body weight, ip after 24 hrs; format: functional; design: scale not given: the % may be the effect or the level left
Rattus norvegicus [5] = assay: Hepatoprotective against tacrine-induced toxicity in Wistar rat liver assessed as increase in ratio of reduced/oxidised glutathione at 6 uM/100 gram of body weight, ip after 24 hrs; format: functional, organism-based
HT-22 [6] = assay: Neuroprotective activity against glutamate induced oxidative stress in mouse hippocampal HT22 cells assessed as cell viability at 25 uM after 24 hrs by MTT assay; format: functional, cell-based
Rattus norvegicus [7] = assay: Hepatoprotective against tacrine-induced toxicity in Wistar rat liver assessed as increase in ratio of reduced/oxidised glutathione at 2 uM/100 gram of body weight, ip after 24 hrs; format: functional, organism-based
HT-22 [8] = assay: Neuroprotective activity against glutamate induced oxidative stress in mouse hippocampal HT22 cells assessed as cell viability at 50 uM after 24 hrs by MTT assay; format: functional, cell-based
[9] = target: Cholinesterase (Equus caballus) (UniProt P81908); assay: Inhibition of […] at 100 uM by colorimetric Ellman assay
Acetylcholinesterase = Acetylcholinesterase (Electrophorus electricus, UniProt O42275)
Description: Inhibition of electric eel AChE by colorimetric Ellman assay

Cholinesterase = Cholinesterase (Equus caballus, UniProt P81908)
HT-22 [10] = assay: Neurotoxicity in mouse hippocampal HT22 cells assessed as cell viability at 25 uM after 24 hrs by MTT assay; format: toxicity, cell-based; details: ht-22, 24 h
[11] = Hepatotoxicity against human HSC cells assessed as mitochondrial swelling at 50 to 75 uM after 24 hrs by fluorescence microscopic analysis; format: toxicity, cell-based
HT-22 [12] = assay: Neurotoxicity in mouse hippocampal HT22 cells assessed as cell viability at 10 uM after 24 hrs by MTT assay; format: toxicity, cell-based; details: ht-22, 24 h
[13] = Hepatotoxicity against human HSC cells assessed as reduction in cell number at 10 to 75 uM after 24 hrs by fluorescence microscopic analysis; format: toxicity, cell-based
HT-22 [14] = assay: Neurotoxicity in mouse hippocampal HT22 cells assessed as cell viability at 1 uM after 24 hrs by MTT assay; format: toxicity, cell-based; details: ht-22, 24 h
[15] = Hepatotoxicity against human HSC cells assessed as reduction in cell number up to 200 uM after 24 hrs using crystal violet staining by photometry; format: toxicity, cell-based
Rattus norvegicus [16] = assay: Hepatoprotective activity in Wistar rat assessed as decrease in tissue content of TBARS at 2 uM/100 gram of body weight, ip after 24 hrs; format: functional; design: scale not given: the % may be the effect or the level left

Sequence of Cholinesterase (P81908 whole entry): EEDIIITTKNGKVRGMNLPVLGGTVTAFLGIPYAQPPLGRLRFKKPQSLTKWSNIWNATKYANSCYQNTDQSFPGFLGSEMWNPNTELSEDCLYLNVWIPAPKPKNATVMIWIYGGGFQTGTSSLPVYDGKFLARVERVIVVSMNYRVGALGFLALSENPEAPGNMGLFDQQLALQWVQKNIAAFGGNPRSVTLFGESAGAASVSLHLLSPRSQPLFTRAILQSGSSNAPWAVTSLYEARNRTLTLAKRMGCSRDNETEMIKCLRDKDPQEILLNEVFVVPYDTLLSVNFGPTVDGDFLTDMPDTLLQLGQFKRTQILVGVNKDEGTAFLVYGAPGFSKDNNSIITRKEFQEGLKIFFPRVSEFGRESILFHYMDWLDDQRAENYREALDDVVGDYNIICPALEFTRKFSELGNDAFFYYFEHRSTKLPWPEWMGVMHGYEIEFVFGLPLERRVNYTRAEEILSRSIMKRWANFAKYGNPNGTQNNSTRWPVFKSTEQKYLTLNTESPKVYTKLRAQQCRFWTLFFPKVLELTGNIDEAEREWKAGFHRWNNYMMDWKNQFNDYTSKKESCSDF
Sequence of Acetylcholinesterase (O42275 whole entry): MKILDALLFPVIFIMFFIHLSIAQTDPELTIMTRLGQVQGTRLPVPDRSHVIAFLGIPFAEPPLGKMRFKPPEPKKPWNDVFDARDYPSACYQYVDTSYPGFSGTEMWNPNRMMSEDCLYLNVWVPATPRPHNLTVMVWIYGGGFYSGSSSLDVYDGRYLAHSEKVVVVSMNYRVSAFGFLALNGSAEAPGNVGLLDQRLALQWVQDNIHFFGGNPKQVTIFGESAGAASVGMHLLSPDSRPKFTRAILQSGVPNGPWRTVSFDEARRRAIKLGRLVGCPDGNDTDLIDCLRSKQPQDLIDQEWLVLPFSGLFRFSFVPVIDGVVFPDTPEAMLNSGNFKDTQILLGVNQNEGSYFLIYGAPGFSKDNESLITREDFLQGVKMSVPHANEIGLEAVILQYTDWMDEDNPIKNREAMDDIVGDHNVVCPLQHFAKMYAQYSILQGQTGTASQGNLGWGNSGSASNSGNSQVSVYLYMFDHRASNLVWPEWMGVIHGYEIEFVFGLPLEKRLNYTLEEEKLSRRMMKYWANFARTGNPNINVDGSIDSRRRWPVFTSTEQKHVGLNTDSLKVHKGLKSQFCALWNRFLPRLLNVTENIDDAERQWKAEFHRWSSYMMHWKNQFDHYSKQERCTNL
Sequence of Cholinesterase (Equus caballus) (P81908 whole entry): as the sequence (P81908 whole entry) above
Sequence of Acetylcholinesterase (Electrophorus electricus) (O42275 24-633 limits assumed): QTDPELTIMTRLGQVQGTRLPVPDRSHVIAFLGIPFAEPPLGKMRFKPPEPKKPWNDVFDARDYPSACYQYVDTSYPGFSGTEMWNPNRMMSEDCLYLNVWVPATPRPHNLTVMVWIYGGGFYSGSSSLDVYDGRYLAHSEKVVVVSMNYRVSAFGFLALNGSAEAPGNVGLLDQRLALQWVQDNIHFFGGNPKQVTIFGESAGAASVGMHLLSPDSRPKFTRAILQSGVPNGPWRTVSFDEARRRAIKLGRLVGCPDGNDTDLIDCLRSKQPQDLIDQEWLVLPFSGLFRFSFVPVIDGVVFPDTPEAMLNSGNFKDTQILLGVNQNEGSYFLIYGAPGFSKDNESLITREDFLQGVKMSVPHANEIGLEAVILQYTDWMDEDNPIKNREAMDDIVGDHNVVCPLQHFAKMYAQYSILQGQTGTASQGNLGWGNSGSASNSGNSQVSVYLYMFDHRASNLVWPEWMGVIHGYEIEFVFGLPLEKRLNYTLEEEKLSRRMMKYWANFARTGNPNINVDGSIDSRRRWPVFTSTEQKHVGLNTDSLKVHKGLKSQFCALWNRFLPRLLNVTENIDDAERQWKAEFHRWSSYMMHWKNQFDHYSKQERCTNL

Compound: COc1cc(C2Oc3cc([C@H]4Oc5cc(O)cc(O)c5C(=O)[C@@H]4O)ccc3OC2CO)ccc1O (stereo partly specified) [SILIBININ]
- Activity (HT-22 [1]): inactive
- Activity (HT-22 [2]): inactive
- inhibition [3]: 5.5%
- Activity (Rattus norvegicus [4]): 15%
- Activity (Rattus norvegicus [5]): Active
- Activity (HT-22 [6]): inactive
- Activity (Rattus norvegicus [7]): Active
- Activity (HT-22 [8]): inactive
- inhibition [9]: 3.1%

Compound: O=C(O)CCC(=O)NCCCCCCNc1c2c(nc3ccccc13)CCCC2
- pIC50 (Acetylcholinesterase): 6.99
- pIC50 (Cholinesterase): 6.44

Compound: COc1cc([C@@H]2Oc3cc([C@H]4Oc5cc(O)cc(O)c5C(=O)[C@@H]4O)ccc3O[C@H]2COC(=O)CCC(=O)NCCCCCCNc2c3c(nc4ccccc24)CCCC3)ccc1O
- Activity (HT-22 [10]): Non-toxic
- Activity [11]: Non-toxic
- Activity (HT-22 [1]): Active
- Activity (HT-22 [12]): Non-toxic
- Activity (HT-22 [2]): Active
- pIC50 (Acetylcholinesterase): 7.27
- Activity [13]: Non-toxic
- Activity (HT-22 [14]): Non-toxic
- pIC50 (Cholinesterase): 7.30
- Activity [15]: Non-toxic
- Activity (HT-22 [6]): Active
- Activity (Rattus norvegicus [16]): 25%
- Activity (HT-22 [8]): Active

Compound: NCCCCCCNc1c2c(nc3ccccc13)CCCC2
- pIC50 (Acetylcholinesterase): 7.41
- pIC50 (Cholinesterase): 8.70
